Data from US11332459B2 (TEIJIN PHARMA LIMITED, priority 2017, dated 2022).

biological target: T1, human TRPC6 (Homo sapiens, UniProt Q9Y210); experiment: TRPC6 calcium flux assay (FLIPR, OAG-stimulated calcium influx); assay type: cell-based; conditions: HEK293 cells stably transfected with human TRPC6, read-out: hTRPC6 Potency
T1 construct: expressed in transfected cells
T1 sequence (Q9Y210 1-931): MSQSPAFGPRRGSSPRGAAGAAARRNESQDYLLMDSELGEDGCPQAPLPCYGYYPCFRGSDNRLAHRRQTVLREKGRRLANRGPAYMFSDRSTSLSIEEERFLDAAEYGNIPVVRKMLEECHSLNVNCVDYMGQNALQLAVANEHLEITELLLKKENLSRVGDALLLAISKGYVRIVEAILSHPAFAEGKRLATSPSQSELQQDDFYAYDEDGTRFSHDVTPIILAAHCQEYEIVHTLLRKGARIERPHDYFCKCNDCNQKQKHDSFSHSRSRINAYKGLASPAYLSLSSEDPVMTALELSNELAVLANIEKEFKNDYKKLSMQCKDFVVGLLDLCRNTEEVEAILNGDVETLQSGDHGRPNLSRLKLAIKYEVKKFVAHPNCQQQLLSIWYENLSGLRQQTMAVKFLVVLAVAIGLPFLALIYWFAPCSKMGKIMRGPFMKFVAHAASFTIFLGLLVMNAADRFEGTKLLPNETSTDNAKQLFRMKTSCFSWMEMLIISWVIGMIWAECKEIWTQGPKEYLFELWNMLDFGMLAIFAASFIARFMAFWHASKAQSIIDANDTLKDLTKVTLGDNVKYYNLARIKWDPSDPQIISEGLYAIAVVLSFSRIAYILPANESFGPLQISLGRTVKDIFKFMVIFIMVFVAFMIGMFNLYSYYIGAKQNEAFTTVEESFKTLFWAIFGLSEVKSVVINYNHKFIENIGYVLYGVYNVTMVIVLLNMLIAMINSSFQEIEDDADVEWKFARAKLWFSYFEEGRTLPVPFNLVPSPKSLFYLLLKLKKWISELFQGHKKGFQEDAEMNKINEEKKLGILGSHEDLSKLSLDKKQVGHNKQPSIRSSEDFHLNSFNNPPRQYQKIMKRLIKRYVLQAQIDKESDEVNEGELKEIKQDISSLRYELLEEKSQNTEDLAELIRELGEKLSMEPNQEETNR
Outline: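 HEK293 cells stably expressing human TRPC6, loaded with calcium dye 90–120 min at RT, then given compound for 25 min before OAG (50 uM final, 0.5% DMSO) in HEPES buffer pH 7.2 with 2 mM CaCl2. Background-subtracted FLIPR peak over 180 s normalized to OAG vs buffer; IC50 from dose plot.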

SMILES	IC50
Cc1cc2nc(N3CC[C@@H](F)[C@H](N)C3)n(Cc3ccc(C#N)cn3)c2cc1Cl [Example 112, 6-((2-((3R,4R)-3-amino-4-fluoro-1-piperidinyl)-6-chloro-5-methyl-1H-benzimidazol-1-yl)methyl)-3-pyridinecarbonitrile]	0.281 nM
Cc1cc2c(cc1Cl)nc(N1CC[C@@H](F)[C@H](N)C1)n2Cc1ccc(C#N)cn1 [Example 113, 6-((2-((3R,4R)-3-amino-4-fluoro-1-piperidinyl)-5-chloro-6-methyl-1H-benzimidazol-1-yl)methyl)-3-pyridinecarbonitrile]	0.286 nM
Cc1cc2nc(N3CC[C@@H](F)[C@H](N)C3)n(Cc3ccc(C#N)cn3)c2cc1F [Example 114, 6-((2-((3R,4R)-3-amino-4-fluoro-1-piperidinyl)-6-fluoro-5-methyl-1H-benzimidazol-1-yl)methyl)-3-pyridinecarbonitrile]	0.382 nM
Cc1cc2c(cc1F)nc(N1CC[C@@H](F)[C@H](N)C1)n2Cc1ccc(C#N)cn1 [Example 115, 6-((2-((3R,4R)-3-amino-4-fluoro-1-piperidinyl)-5-fluoro-6-methyl-1H-benzimidazol-1-yl)methyl)-3-pyridinecarbonitrile]	0.446 nM
CN[C@H]1CCCN(c2nc3ccccc3n2Cc2ccc(C#N)cn2)C1 [Example 116, 6-((2-((3S)-3-(methylamino)-1-piperidinyl)-1H-benzimidazol-1-yl)methyl)-3-pyridinecarbonitrile]	7.79 nM
CN[C@@H]1CCCN(c2nc3ccccc3n2Cc2ccc(C#N)cn2)C1 [Example 117, 6-((2-((3R)-3-(methylamino)-1-piperidinyl)-1H-benzimidazol-1-yl)methyl)-3-pyridinecarbonitrile]	> 3750 nM
N#Cc1ccc(Cn2c(N3CC[C@@H](F)[C@H](N)C3)nc3ccc(OC(F)F)cc32)nc1 [Example 118, 6-((2-((3R,4R)-3-amino-4-fluoro-1-piperidinyl)-6-(difluoromethoxy)-1H-benzimidazol-1-yl)methyl)-3-pyridinecarbonitrile]	0.855 nM
N#Cc1ccc(Cn2c(N3CC[C@@H](F)[C@H](N)C3)nc3cc(OC(F)F)ccc32)nc1 [Example 119, 6-((2-((3R,4R)-3-amino-4-fluoro-1-piperidinyl)-5-(difluoromethoxy)-1H-benzimidazol-1-yl)methyl)-3-pyridinecarbonitrile]	1.94 nM
Cc1cccc2c1nc(N1CC[C@@H](F)[C@H](N)C1)n2Cc1ccc(C#N)cn1 [Example 121, 6-((2-((3R,4R)-3-amino-4-fluoro-1-piperidinyl)-4-methyl-1H-benzimidazol-1-yl)methyl)-3-pyridinecarbonitrile]	5.59 nM
NC(=O)c1cnc(Cn2c(N3CC[C@H](F)[C@H](N)C3)nc3ccc(C(F)(F)F)cc32)cn1 [Example 122, 5-((2-((3R,4S)-3-amino-4-fluoro-1-piperidinyl)-6-(trifluoromethyl)-1H-benzimidazol-1-yl)methyl)-2-pyrazinecarboxamide]	29.9 nM
N#Cc1ccc(Cn2c(N3CC[C@@H](F)[C@H](N)C3)nc3cc(Cl)c(C(F)(F)F)cc32)nc1 [Example 127, 6-((2-((3R,4R)-3-amino-4-fluoro-1-piperidinyl)-5-chloro-6-(trifluoromethyl)-1H-benzimidazol-1-yl)methyl)-3-pyridinecarbonitrile]	0.492 nM
N#Cc1ccc(Cn2c(N3CCC[C@]4(CCCCN4)C3)nc3ccccc32)nc1 [Example 129, 6-((2-((6R)-1,8-diazaspiro[5.5]undecan-8-yl)-1H-benzimidazol-1-yl)methyl)-3-pyridinecarbonitrile]	> 3750 nM
NC(=O)c1cnc(Cn2c(N3CC[C@@H](F)[C@H](N)C3)nc3ccc(C(F)(F)F)cc32)cn1 [Example 134, 5-((2-((3R,4R)-3-amino-4-fluoro-1-piperidinyl)-6-(trifluoromethyl)-1H-benzimidazol-1-yl)methyl)-2-pyrazinecarboxamide]	4.71 nM
N#Cc1ccc(Cn2c(N3CCC[C@]4(CCCN4)C3)nc3ccccc32)nc1 [Example 135, 6-((2-((5R)-1,7-diazaspiro[4.5]decan-7-yl)-1H-benzimidazol-1-yl)methyl)-3-pyridinecarbonitrile]	> 3750 nM
N#Cc1ccc(Cn2c(N3CCC[C@@]4(CCCN4)C3)nc3ccccc32)nc1 [Example 136, 6-((2-((5S)-1,7-diazaspiro[4.5]decan-7-yl)-1H-benzimidazol-1-yl)methyl)-3-pyridinecarbonitrile]	13.9 nM
COc1ccc2nc(N3CCC(F)(F)[C@H](N)C3)n(Cc3ccc(C#N)cn3)c2c1 [Example 138, 6-((2-((3R)-3-amino-4,4-difluoro-1-piperidinyl)-6-methoxy-1H-benzimidazol-1-yl)methyl)-3-pyridinecarbonitrile]	0.52 nM
CN[C@H]1CCCN(c2nc3ccc(C(F)(F)F)cc3n2Cc2ccc(C#N)cn2)C1 [Example 139, 6-((2-((3S)-3-(methylamino)-1-piperidinyl)-6-(trifluoromethyl)-1H-benzimidazol-1-yl)methyl)-3-pyridinecarbonitrile]	1.91 nM

More lines, in order of falling IC50, values ahead:

IC50	SMILES
269 nM	N#Cc1ccc(Cn2c(N3CCC[C@@]4(CCCCN4)C3)nc3ccccc32)nc1 [Example 130, 6-((2-((6S)-1,8-diazaspiro[5.5]undecan-8-yl)-1H-benzimidazol-1-yl)methyl)-3-pyridinecarbonitrile]
252 nM	NC(=O)c1cnc(Cn2c(N3CC[C@H](F)[C@H](N)C3)nc3cc(C(F)(F)F)ccc32)cn1 [Example 123, 5-((2-((3R,4S)-3-amino-4-fluoro-1-piperidinyl)-5-(trifluoromethyl)-1H-benzimidazol-1-yl)methyl)-2-pyrazinecarboxamide]
132 nM	CN[C@H]1CCCN(c2nc3cc(C(F)(F)F)ccc3n2Cc2ccc(C#N)cn2)C1 [Example 140, 6-((2-((3S)-3-(methylamino)-1-piperidinyl)-5-(trifluoromethyl)-1H-benzimidazol-1-yl)methyl)-3-pyridinecarbonitrile]
82.6 nM	N#Cc1ccc(Cn2c(N3CC[C@H]4OCCN[C@@H]4C3)nc3ccccc32)nc1 [Example 131, 6-((2-((4aR,8aR)-hexahydro-2H-pyrido[4,3-b][1,4]oxazin-6(5H)-yl)-1H-benzimidazol-1-yl)methyl)-3-pyridinecarbonitrile]
42 nM	N#Cc1ccc(Cn2c(N3CC[C@@H]4OCCN[C@H]4C3)nc3ccccc32)nc1 [Example 132, 6-((2-((4aS,8aS)-hexahydro-2H-pyrido[4,3-b][1,4]oxazin-6(5H)-yl)-1H-benzimidazol-1-yl)methyl)-3-pyridinecarbonitrile]
36.2 nM	COc1ccc2c(c1)nc(N1CCC(F)(F)[C@H](N)C1)n2Cc1ccc(C#N)cn1 [Example 137, 6-((2-((3R)-3-amino-4,4-difluoro-1-piperidinyl)-5-methoxy-1H-benzimidazol-1-yl)methyl)-3-pyridinecarbonitrile]
6.98 nM	NC(=O)c1cnc(Cn2c(N3CC[C@@H](F)[C@H](N)C3)nc3cc(F)c(F)cc32)cn1 [Example 133, 5-((2-((3R,4R)-3-amino-4-fluoro-1-piperidinyl)-5,6-difluoro-1H-benzimidazol-1-yl)methyl)-2-pyrazinecarboxamide]
3.21 nM	COc1cccc2c1nc(N1CC[C@@H](F)[C@H](N)C1)n2Cc1ccc(C#N)cn1 [Example 120, 6-((2-((3R,4R)-3-amino-4-fluoro-1-piperidinyl)-4-methoxy-1H-benzimidazol-1-yl)methyl)-3-pyridinecarbonitrile]
0.741 nM	N#Cc1ccc(Cn2c(N3CC[C@@H](F)[C@H](N)C3)nc3cc(OC(F)(F)F)c(Cl)cc32)nc1 [Example 124, 6-((2-((3R,4R)-3-amino-4-fluoro-1-piperidinyl)-6-chloro-5-(trifluoromethoxy)-1H-benzimidazol-1-yl)methyl)-3-pyridinecarbonitrile]
0.48 nM	N#Cc1ccc(Cn2c(N3CC[C@@H](F)[C@H](N)C3)nc3cc(C(F)(F)F)c(Cl)cc32)nc1 [Example 126, 6-((2-((3R,4R)-3-amino-4-fluoro-1-piperidinyl)-6-chloro-5-(trifluoromethyl)-1H-benzimidazol-1-yl)methyl)-3-pyridinecarbonitrile]
0.389 nM	N#Cc1ccc(Cn2c(N3CC[C@@H](F)[C@H](N)C3)nc3cc(Cl)c(OC(F)(F)F)cc32)nc1 [Example 125, 6-((2-((3R,4R)-3-amino-4-fluoro-1-piperidinyl)-5-chloro-6-(trifluoromethoxy)-1H-benzimidazol-1-yl)methyl)-3-pyridinecarbonitrile]
